# Calls of active or inactive are those of the source.
# Key:
# [1] = biological target: T1, Methionyl-tRNA synthetase, putative (Trypanosoma brucei brucei, UniProt Q38C91); format: functional, Trypanosoma brucei brucei strain 927/4 GUTat10.1
# [2] = Counterscreen for inhibitors of Trypanosoma brucei methionyl tRNA synthetase (MetRS): Luminescence-based cell-based high throughput dose response assay to identify compounds that are cytotoxic to Jurkat human T lymphocyte cells.; format: functional
# [3] = biological target: T1, Methionyl-tRNA synthetase, putative; format: functional, Trypanosoma brucei brucei strain 927/4 GUTat10.1; remark: listed apart in the source
# [4] = biological target: T2, Fatty acid synthase (Homo sapiens, UniProt P49327); assay: inhibition of human FAS-TE enzyme activity – biochemical, endpoint fluorescence intensity, uHTS hits, dose response (AID 624327); format: functional;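 note: fluorescence from hydrolysis of an O-methyl fluorescein acyl ester substrate by the enzyme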
# [5] = biological target: T2, Fatty acid synthase; assay: inhibition of human FAS-TE enzyme activity – biochemical, kinetic fluorescence intensity, dose response (AID 624326); format: functional;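 note: rate of fluorescence rise from hydrolysis of a fluorogenic O-methyl fluorescein ester substrate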
# [6] = biological target: ADP-ribosylation factor GTPase-activating protein 1 (Rattus norvegicus, UniProt Q62848); assay: Fluorescence polarization-based biochemical high throughput dose response screening assay to identify inhibitors of ADP-ribosylation factor GTPase activating protein 1 (ARFGAP1).; format: functional
# [7] = activation of miR-122 Renilla sensor silencing – cell-based, Huh7 psiCHECK-miR122, Renilla luciferase, cherry-picked, dose response (AID 651956); format: functional;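 note: huh7 hepatoma cells stably carrying a psiCHECK-2 miR-122 sensor plasmid; renilla luciferase signal reporting endogenous miR-122 activity after 48 h compound exposure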
# [8] = general mammalian cell viability loss – activator set, cherry-pick, cytotoxicity control for miR-122 modulator project, dose response (AID 720690); format: functional, cell-based;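 note: HEK293T human cells scored for general mammalian cytotoxicity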
# [9] = mouse fibroblast viability loss – cell-based, cherry-pick samples, set 2, cytotoxicity control for T. cruzi growth inhibitor project, dose response (AID 651817); format: functional; details: NIH3T3
# [10] = biological target: Beta-lactamase (Salmonella choleraesuis (strain SC-B67), UniProt Q5J463); assay: Epi-absorbance-based counterscreen for selective VIM-2 inhibitors: dose response biochemical high throughput screening assay to identify inhibitors of TEM-1 serine-beta-lactamase.
# [11] = biological target: T3, Beta-lactamase (Pseudomonas aeruginosa, UniProt Q79MP6); assay: inhibition of IMP-1 beta-lactamase activity – biochemical, epi-absorbance, selectivity assay for VIM-2 inhibitor project, dose response (AID 1920)
# [12] = biological target: T4, Beta Lactamase (Pseudomonas aeruginosa, UniProt Q932Y6); assay: concentration-dependent VIM-2 enzyme inhibition – biochemical, epi-absorbance readout, selective inhibitors, dose response (AID 1919)
# [13] = biological target: T3, Beta-lactamase; assay: […] counterscreen for selective VIM-2 inhibitors: dose response biochemical high throughput screening assay to identify inhibitors of IMP-1 metallo-beta-lactamase.
# [14] = biological target: T4, Beta Lactamase; assay: VIM-2 CCF2 hydrolysis inhibition, assay artifact filter – biochemical, FRET readout, CCF2 substrate, artefact control for selective VIM-2 inhibitor project, dose response (AID 1926)
# [15] = biological target: Tyrosine-protein phosphatase non-receptor type 11 (Homo sapiens, UniProt Q06124); assay: PTPN11 enzyme inhibitors – biochemical, selectivity assay for STEP inhibitor project, dose response (AID 602367); format: functional; details: read-out: IC50_Mean
# [16] = biological target: 26S proteasome non-ATPase regulatory subunit 14 (Homo sapiens, UniProt O00487); assay: inhibition of proteasome subunit RPN11 – biochemical, fluorescence polarization, uHTS hits, confirmation (AID 602368); format: functional
# [17] = biological target: Tyrosine-protein phosphatase non-receptor type 5 (Homo sapiens, UniProt P54829); assay: PTPN5 enzyme inhibition – biochemical, fluorescence intensity, uHTS hits, confirmation (AID 602372); format: functional; details: read-out: IC50_Mean
# [18] = biological target: 72 kDa type IV collagenase (Homo sapiens, UniProt P08253); assay: Dose Response validation of uHTS RPN11 inhibitor hits using a MMP-2 Fluorescence assay.; format: functional
# [19] = biological target: Dual specificity protein phosphatase 3 (Homo sapiens, UniProt P51452); assay: VHR phosphatase inhibition, dose response, selectivity assay for STEP inhibitor project, biochemical (AID 602374); format: functional; details: read-out: IC50_Mean
# [20] = biological target: Prothrombin (Bos taurus, UniProt P00735); assay: thrombin protease inhibitors – biochemical, fluorescence polarization, uHTS hits, dose response (AID 602369); format: functional
# [21] = biological target: T5, Tyrosine-protein phosphatase non-receptor type 22 (Homo sapiens, UniProt Q9Y2R2); assay: lymphoid phosphatase LYP inhibitors – biochemical, selectivity assay for STEP inhibitor project, dose response (AID 624241); format: functional
# T5 sequence (Q9Y2R2 whole entry): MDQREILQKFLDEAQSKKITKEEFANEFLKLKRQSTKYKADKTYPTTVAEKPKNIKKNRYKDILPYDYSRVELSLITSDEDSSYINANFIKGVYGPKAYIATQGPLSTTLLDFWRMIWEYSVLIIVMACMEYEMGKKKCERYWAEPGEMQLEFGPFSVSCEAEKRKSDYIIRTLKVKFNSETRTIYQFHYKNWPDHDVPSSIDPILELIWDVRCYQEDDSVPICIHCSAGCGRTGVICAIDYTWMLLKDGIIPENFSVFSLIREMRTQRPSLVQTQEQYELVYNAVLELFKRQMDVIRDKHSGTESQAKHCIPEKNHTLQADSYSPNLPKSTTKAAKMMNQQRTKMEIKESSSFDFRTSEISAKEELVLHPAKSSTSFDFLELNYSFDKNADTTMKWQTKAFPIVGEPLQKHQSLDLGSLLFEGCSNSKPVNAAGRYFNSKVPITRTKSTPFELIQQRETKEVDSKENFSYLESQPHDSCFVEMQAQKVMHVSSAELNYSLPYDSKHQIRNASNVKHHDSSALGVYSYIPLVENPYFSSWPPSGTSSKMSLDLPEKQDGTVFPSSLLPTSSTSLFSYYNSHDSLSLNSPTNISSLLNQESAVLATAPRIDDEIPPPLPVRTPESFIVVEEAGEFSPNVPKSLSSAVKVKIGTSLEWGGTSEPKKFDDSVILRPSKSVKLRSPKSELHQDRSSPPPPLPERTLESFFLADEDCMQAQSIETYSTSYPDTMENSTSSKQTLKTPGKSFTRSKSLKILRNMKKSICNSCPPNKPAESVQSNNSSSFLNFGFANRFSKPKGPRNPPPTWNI
# [22] = general mammalian cell viability loss – inhibitor set, cherry-pick, set 2, cytotoxicity control for miR-122 modulator project, dose response (AID 720697); format: functional, cell-based
# [23] = reduction of Shn3 3'UTR-driven luciferase in osteoblasts – cell-based, Clone20 osteoblasts, firefly luciferase, cherry-picked, dose response (AID 624132); format: functional;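 note: firefly luciferase luminescence from reporter carrying the Shn3 3'UTR in osteoblasts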
# [24] = loss of viability in HepG2 cells – cell-based, CellTiter-Glo, cherry-picked, cytotoxicity control for Shn3 inhibitor project, dose response (AID 624134); format: functional
# [25] = non-specific 3'UTR reporter inhibition in Clone20-Shn3RL – cell-based, Renilla luciferase, cherry-picked, counter-screen for Shn3 inhibitor project, dose response (AID 624133); format: functional
# [26] = biological target: T6, Protein disulfide-isomerase (Homo sapiens, UniProt P07237); assay: inhibition of PDI-driven insulin aggregation – biochemical, turbidity, absorbance, cherry-picked samples, dose response (AID 602350); format: functional
# [27] = Fluorescence-based cell-based high throughput dose response assay for inhibitors of the interaction of nucleotide-binding oligomerization domain containing 2 (NOD2) and the receptor-interacting serine-threonine kinase 2 (RIPK2).; format: functional; details: Homo sapiens
# [28] = biological target: T4, Beta Lactamase; assay: BLA reporter interference, concentration series – BLA reporter cells, FRET fluorescence, artefact control for NOD2-RIPK2 interaction inhibitor project, dose response (AID 651552); format: functional, cell-based
# [29] = biological target: T6, Protein disulfide-isomerase; assay: inhibition of PDI-mediated insulin reduction – biochemical, turbidity, absorbance, cherry-picked samples, set 2, dose response (AID 624274); format: functional
# [30] = biological target: Paired box protein Pax-8 (Homo sapiens, UniProt Q06710); assay: PAX8 transcriptional activity inhibition in RMG-I – RMG-I cells, luciferase, cherry-pick, dose response (AID 687027); format: functional, cell-based;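 note: luciferase reporter driven by Pax8 target thyroperoxidase promoter measured by SteadyGlo luminescence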
# [31] = general cell-killing toxicity readout – plate reader, dry powder samples, cytotoxicity control for PAX8 inhibitor project, dose response (AID 743021); format: functional, cell-based
# [32] = biological target: T7, ATP-dependent translocase ABCB1 (Homo sapiens, UniProt P08183); assay: inhibition of BCRP-mediated JC-1 efflux – Ig-MXP3 cells, flow cytometry, set 2, dose response (AID 504566); format: functional; details: read-out: EC50_MICROM_;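 note: flow cytometry median green fluorescence of retained JC-1 dye; potency of efflux pump inhibition measured as rising substrate retention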
# [33] = biological target: T7, ATP-dependent translocase ABCB1; assay: P-gp JC-1 efflux blockade concentration-response – Jurkat-DNR cells, flow cytometry, set 2, dose response (AID 504569); format: functional; details: read-out: EC50_MICROM_;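 note: potency of pump inhibitors that raise cellular JC-1 green fluorescence up to the nicardipine level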
# T4 sequence (Q932Y6 whole entry): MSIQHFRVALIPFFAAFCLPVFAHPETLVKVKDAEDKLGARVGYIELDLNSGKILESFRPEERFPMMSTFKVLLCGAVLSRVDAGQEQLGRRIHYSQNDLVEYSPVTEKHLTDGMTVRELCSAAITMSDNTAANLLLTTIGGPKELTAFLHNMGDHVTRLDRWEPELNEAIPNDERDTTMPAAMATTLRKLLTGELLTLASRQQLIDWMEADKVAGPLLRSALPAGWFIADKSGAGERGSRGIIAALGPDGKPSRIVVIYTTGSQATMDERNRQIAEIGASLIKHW
# T7 sequence (P08183 whole entry): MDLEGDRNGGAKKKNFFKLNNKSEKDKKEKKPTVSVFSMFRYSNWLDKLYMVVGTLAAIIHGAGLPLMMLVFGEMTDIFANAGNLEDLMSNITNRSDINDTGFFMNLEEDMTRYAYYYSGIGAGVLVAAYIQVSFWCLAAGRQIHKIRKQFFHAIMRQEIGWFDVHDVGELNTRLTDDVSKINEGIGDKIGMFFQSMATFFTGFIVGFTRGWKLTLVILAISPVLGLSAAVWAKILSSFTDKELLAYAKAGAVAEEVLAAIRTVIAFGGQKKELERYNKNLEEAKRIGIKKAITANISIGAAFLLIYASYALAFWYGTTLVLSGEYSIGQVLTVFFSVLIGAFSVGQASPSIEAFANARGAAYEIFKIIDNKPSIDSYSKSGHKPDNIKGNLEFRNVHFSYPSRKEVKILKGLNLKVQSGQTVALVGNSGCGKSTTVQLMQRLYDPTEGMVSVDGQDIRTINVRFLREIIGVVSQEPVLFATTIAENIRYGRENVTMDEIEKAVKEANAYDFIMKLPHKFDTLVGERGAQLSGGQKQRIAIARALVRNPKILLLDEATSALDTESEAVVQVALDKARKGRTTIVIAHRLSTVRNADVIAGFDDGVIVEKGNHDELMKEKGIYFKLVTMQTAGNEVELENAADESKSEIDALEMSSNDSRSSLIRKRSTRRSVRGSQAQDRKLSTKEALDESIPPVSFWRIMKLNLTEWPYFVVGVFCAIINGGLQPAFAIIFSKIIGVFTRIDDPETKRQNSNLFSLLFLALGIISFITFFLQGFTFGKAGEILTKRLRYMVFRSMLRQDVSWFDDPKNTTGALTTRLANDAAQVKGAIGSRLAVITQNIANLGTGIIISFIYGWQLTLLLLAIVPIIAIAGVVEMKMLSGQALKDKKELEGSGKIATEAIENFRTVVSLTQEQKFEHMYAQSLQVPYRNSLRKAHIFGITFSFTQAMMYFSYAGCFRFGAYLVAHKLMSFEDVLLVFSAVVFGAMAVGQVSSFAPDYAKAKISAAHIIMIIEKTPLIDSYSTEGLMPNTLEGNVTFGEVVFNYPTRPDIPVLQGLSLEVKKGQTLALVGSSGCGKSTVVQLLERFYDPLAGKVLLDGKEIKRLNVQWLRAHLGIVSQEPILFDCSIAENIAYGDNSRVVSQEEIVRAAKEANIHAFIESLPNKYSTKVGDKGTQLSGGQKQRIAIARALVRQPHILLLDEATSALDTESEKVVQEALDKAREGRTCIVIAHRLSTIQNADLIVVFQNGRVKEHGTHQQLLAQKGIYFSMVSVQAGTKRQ
# T1 sequence (Q38C91 whole entry): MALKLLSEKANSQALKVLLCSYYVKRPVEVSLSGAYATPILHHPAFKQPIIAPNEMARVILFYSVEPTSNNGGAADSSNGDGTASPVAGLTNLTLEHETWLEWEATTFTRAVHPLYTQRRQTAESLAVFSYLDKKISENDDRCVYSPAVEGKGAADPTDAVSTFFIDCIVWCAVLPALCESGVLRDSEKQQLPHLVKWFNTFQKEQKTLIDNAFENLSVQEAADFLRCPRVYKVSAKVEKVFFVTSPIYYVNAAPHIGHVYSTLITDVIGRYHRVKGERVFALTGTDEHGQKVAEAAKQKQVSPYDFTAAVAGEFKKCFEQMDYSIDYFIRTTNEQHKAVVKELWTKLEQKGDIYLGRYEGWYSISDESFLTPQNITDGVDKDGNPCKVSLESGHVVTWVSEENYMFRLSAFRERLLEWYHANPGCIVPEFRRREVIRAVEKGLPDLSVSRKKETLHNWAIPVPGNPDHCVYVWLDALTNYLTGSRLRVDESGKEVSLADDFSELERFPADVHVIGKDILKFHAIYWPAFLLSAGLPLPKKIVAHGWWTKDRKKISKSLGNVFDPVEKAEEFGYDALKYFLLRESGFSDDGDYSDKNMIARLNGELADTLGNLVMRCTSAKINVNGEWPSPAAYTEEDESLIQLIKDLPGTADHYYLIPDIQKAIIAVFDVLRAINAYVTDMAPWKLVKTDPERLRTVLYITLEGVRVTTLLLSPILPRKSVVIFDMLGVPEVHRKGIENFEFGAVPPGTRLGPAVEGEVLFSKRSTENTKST
# T2 sequence (P49327 whole entry): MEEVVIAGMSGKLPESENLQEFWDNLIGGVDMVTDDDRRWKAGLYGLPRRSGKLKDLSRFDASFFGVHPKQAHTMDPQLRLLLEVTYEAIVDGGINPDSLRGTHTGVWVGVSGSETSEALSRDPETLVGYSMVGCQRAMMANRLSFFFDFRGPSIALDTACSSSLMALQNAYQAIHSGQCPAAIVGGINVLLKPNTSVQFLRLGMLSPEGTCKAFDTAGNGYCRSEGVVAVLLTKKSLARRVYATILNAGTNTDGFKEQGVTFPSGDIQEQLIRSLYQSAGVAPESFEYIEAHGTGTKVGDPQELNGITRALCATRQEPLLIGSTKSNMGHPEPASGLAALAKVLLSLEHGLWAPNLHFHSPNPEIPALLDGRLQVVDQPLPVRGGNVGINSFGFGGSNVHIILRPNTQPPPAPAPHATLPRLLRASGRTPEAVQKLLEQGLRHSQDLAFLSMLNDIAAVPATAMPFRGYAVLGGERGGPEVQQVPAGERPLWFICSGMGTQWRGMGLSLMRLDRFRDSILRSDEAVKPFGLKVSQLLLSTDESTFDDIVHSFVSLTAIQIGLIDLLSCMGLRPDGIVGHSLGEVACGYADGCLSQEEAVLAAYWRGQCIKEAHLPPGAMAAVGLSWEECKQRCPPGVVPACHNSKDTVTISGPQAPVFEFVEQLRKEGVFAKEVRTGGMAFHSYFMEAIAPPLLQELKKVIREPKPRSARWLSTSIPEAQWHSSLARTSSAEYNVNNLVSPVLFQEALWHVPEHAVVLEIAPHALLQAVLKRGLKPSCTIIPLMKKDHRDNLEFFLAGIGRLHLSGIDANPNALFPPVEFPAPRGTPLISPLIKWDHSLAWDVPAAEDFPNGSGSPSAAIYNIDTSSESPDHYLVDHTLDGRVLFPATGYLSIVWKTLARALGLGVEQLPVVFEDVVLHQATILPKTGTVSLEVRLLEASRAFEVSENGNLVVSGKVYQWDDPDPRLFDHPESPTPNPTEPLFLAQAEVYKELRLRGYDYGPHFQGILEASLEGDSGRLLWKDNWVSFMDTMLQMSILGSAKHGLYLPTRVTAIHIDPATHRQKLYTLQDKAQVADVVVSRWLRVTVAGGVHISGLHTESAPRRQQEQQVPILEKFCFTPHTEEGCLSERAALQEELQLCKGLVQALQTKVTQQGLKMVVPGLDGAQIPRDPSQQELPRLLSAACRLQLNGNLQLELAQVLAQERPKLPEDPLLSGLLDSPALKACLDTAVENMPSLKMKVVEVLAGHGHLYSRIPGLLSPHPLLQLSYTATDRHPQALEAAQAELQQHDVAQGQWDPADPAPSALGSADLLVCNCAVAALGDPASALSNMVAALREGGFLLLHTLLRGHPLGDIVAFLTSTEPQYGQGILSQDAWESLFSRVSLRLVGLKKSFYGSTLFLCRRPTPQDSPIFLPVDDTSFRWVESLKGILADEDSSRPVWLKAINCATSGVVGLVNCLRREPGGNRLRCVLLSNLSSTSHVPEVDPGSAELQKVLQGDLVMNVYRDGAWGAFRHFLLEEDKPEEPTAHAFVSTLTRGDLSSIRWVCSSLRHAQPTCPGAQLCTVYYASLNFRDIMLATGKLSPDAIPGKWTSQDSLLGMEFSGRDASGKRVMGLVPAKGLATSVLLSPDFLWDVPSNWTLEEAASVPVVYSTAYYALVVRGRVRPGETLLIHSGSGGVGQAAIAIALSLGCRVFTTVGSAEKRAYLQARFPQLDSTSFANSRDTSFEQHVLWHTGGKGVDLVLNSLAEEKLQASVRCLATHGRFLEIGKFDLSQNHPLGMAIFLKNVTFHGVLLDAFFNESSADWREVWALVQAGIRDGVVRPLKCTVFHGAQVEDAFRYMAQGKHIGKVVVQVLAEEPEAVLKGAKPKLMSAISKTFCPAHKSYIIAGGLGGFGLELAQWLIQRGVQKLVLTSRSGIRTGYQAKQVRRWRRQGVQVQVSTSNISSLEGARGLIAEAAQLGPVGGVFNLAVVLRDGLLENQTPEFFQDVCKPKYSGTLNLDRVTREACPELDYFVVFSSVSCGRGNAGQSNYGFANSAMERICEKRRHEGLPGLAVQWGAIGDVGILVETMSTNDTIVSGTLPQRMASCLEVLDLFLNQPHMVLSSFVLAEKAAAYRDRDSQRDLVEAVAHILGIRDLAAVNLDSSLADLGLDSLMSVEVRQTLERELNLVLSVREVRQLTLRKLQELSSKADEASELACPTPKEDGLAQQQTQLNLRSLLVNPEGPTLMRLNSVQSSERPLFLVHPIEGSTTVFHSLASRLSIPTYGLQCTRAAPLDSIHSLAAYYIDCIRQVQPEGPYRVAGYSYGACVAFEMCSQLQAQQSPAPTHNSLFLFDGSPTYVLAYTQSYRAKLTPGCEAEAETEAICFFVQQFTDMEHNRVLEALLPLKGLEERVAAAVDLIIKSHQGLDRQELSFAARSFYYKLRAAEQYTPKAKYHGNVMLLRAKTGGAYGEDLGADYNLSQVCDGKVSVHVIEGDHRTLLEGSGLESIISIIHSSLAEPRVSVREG
# T3 sequence (Q79MP6 whole entry): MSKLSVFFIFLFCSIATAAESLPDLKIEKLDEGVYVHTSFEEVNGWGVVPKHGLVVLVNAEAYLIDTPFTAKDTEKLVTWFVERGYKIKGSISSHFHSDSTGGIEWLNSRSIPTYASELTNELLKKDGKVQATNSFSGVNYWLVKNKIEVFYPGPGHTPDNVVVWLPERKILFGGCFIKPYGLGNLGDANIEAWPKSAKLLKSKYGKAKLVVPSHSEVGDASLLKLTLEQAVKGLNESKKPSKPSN
smiles,measurement,setting,value
Cc1ccc(NC(=O)CN(C)C(=O)c2ccc(Cl)c([N+](=O)[O-])c2)cc1,IC50,[1],17.9 µM (inactive)
same,IC50,[2],56.7 µM (inactive)
same,IC50,[3],8.63 µM (active)
same,IC50,[4],7.6 µM (active)
same,IC50,[5],6.26 µM (active)
Cc1nc(NCc2ccc(S(N)(=O)=O)cc2)c2c(C)c(C)sc2n1,IC50,[6],42.5 µM (inactive)
C[C@@H]1CN([C@@H](C)CO)C(=O)c2cc(C#CC3CCCCC3)cnc2O[C@H]1CN(C)S(=O)(=O)c1cccc(F)c1,AC50,[7],13.9 µM (active)
same,AC50,[8],24.6 µM (active)
C[C@@H]1CN([C@@H](C)CO)C(=O)c2cccc(NC(=O)Nc3ccc(C(F)(F)F)cc3)c2O[C@@H]1CN(C)Cc1ccc(Cl)c(Cl)c1,AC50,[9],14.2 µM (active)
CCc1nnc(S)n1/N=C/C(C)=C\c1ccccc1,IC50,[10],> 59.6 µM (inactive)
same,IC50,[11],> 59.6 µM (inactive)
same,IC50,[12],1.23 µM (active)
same,IC50,[13],> 59.6 µM (inactive)
same,IC50,[14],332 nM (active)
COc1cc(Cl)cc(/C=N\NC(=O)c2ccc3c(c2)OCO3)c1O,IC50,[15],4.16 µM (active)
same,IC50,[16],21.5 µM (active)
same,IC50,[17],9.73 µM (active)
same,IC50,[18],> 100 µM (inactive)
same,IC50,[19],5.02 µM (active)
same,IC50,[20],65.6 µM (active)
same,IC50,[21],> 100 µM (inactive)
same,AC50,[22],5.99 µM (active)
same,AC50,[8],16.6 µM (active)
CS(=O)(=O)c1ccc(C(=O)OCC(=O)N2CCN(CCC3CCCCC3)CC2)cc1[N+](=O)[O-],AC50,[23],2.41 µM (active)
same,AC50,[24],8.73 µM (active)
same,AC50,[25],5.81 µM (active)
same,AC50,[26],< 9 nM (active)
same,IC50,[27],1.84 µM (active)
same,IC50,[28],11.6 µM (inactive)
same,AC50,[29],9 nM (active)
same,AC50,[30],6.68 µM (active)
same,AC50,[31],27 µM (active)
COc1cccc(-c2cc(N3CCN(C(=O)c4ccoc4)CC3)n3nc(-c4cccc(Cl)c4)cc3n2)c1,AC50,[23],6.22 µM (active)
same,AC50,[24],49 µM (active)
same,AC50,[25],> 70 µM (inactive)
same,EC50,[32],760 nM (active)
same,EC50,[33],2.89 µM (active)
